According to patent US7064120B2, “Tricyclic pyridyl carboxamides and derivatives thereof tocolytic oxytocin receptor antagonists” (Wyeth, priority 2001, dated 2006):

Target: T1, human vasopressin V1a receptor subtype (Homo sapiens, UniProt P37288)
T1 construct: host or cells: CHO cells, stably transfected (pZeoSV vector for the Thibonnier line)
Test: Vasopressin binding in CHO cell membranes expressing human vasopressin V1a subtype receptors ([3H]Manning ligand radioligand binding)
Settings: for inhibition at 0.1 µM: 100 nM; for IC50: value in parentheses
Method in brief: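 Radioligand displacement: [3H]Manning ligand, added as 8 nM stock, binds human V1a receptor in CHO-cell membranes (25–50 μg/well), pH 7.4 Tris buffer with protease inhibitors, 60 min room temperature. Bound counts collected by filter harvesting; values are percent inhibition at stated concentration or nanomolar IC50.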

T1 sequence (P37288 whole entry): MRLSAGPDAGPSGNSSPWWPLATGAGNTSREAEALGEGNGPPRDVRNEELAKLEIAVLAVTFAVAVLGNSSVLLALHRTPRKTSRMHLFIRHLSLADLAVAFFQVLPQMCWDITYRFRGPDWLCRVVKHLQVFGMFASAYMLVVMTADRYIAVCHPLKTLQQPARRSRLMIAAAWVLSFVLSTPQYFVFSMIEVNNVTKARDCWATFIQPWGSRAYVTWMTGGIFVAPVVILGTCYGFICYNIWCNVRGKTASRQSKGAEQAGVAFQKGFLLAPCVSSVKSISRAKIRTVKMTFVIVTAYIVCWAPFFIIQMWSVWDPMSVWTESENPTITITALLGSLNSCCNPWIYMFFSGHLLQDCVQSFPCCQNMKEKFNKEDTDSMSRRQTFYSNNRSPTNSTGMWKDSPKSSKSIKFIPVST

| Compound | inhibition at 0.1 µM [%] | IC50 [nM] |
| --- | --- | --- |
| COc1ccccc1-c1ccc(C(=O)N2Cc3ccc(C(=O)N4CCN(c5ccccn5)CC4)n3Cc3ccccc32)cc1OC [Example 84, {10-[(2,2′-Dimethoxy-[1,1′-biphenyl]-4-yl)carbonyl]-10,11-dihydro-5H-pyrrolo[2,1-c][1,4]benzodiazepin-3-yl}[4-(2-pyridinyl)-1-piperazinyl]methanone] | 3 |  |
| COc1ccccc1-c1ccc(C(=O)N2Cc3ccc(C(=O)N4CCN(c5ccccn5)CC4)n3Cc3ccccc32)cc1 [Example 78, {10-[(2′-Methoxy-[1,1′-biphenyl]-4-yl)carbonyl]-10,11-dihydro-5H-pyrrolo[2,1-c][1,4]benzodiazepin-3-yl}[4-(2-pyridinyl)-1-piperazinyl]methanone] | 6 |  |
| COc1cc(-c2ccccc2C(F)(F)F)c(Cl)cc1C(=O)N1Cc2ccc(C(=O)N(C)Cc3cccnc3)n2Cc2ccccc21 [Example 5, 10-{[6-Chloro-3-methoxy-2′-trifluoromethyl-[1,1′-biphenyl]-4-yl]carbonyl}-N-methyl-N-(pyridin-3-ylmethyl)-10,11-dihydro-5H-pyrrolo[2,1-c][1,4]benzodiazepine-3-carboxamide] |  | > 3000 |
| COc1cccc(-c2cc(OC)c(C(=O)N3Cc4ccc(C(=O)NCc5ccncc5)n4Cc4ccccc43)cc2Cl)c1 [Example 95, 10-[(6-Chloro-3,3′-dimethoxy-[1,1′-biphenyl]-4-yl)carbonyl]-N-(4-pyridinylmethyl)-10,11-dihydro-5H-pyrrolo[2,1-c][1,4]benzodiazepine-3-carboxamide] | 1 |  |
| COc1ccccc1-c1ccc(C(=O)N2Cc3ccc(C(=O)N4CCN(c5ccncc5)CC4)n3Cc3ccccc32)cc1C [Example 113, {10-[(2′-Methoxy-2-methyl-[1,1′-biphenyl]-4-yl)carbonyl]-10,11-dihydro-5H-pyrrolo[2,1-c][1,4]benzodiazepin-3-yl}[4-(4-pyridinyl)-1-piperazinyl]methanone] |  | 365 |
| COc1ccccc1-c1ccc(C(=O)N2Cc3ccc(C(=O)N(C)CCc4ccccn4)n3Cc3ccccc32)cc1C [Example 65, 10-[(2′-Methoxy-2-methyl-[1,1′-biphenyl]-4-yl)carbonyl]-N-methyl-N-[2-(2-pyridinyl)ethyl]-10,11-dihydro-5H-pyrrolo[2,1-c][1,4]benzodiazepine-3-carboxamide] | 25 |  |
| COc1cc(-c2ccccc2C)c(Cl)cc1C(=O)N1Cc2ccc(C(=O)N3CCN(c4ccccn4)CC3)n2Cc2ccccc21 [Example 81, {10-[(6-Chloro-3-methoxy-2′-methyl-[1,1′-biphenyl]-4-yl)carbonyl]-10,11-dihydro-5H-pyrrolo[2,1-c][1,4]benzodiazepin-3-yl}[4-(2-pyridinyl)-1-piperazinyl]methanone] | -6 |  |
| COc1cccc(-c2cc(OC)c(C(=O)N3Cc4ccc(C(=O)N(C)CCc5ccccn5)n4Cc4ccccc43)cc2Cl)c1 [Example 70, 10-[(6-Chloro-3,3′-dimethoxy-[1,1′-biphenyl]-4-yl)carbonyl]-N-methyl-N-[2-(2-pyridinyl)ethyl]-10,11-dihydro-5H-pyrrolo[2,1-c][1,4]benzodiazepine-3-carboxamide] | 8 |  |
| COc1cc(C(=O)N2Cc3ccc(C(=O)N(C)Cc4ccc[n+]([O-])c4)n3Cc3ccccc32)ccc1-c1ccccc1C(F)(F)F [Example 8, 10-{[2-Methoxy-2′-trifluoromethyl-[1,1′-biphenyl]-4-yl]carbonyl}-N-methyl-N-(1-oxo-pyridin-3-ylmethyl)-10,11-dihydro-5H-pyrrolo[2,1-c][1,4]benzodiazepine-3-carboxamide] |  | 801 |
| Cc1cc(C(=O)N2Cc3ccc(C(=O)N(C)Cc4ccc[n+]([O-])c4)n3Cc3ccccc32)ccc1-c1ccccc1C(F)(F)F [Example 4, N-Methyl-10-{[2-methyl-2′-trifluoromethyl-[1,1′-biphenyl]-4-yl]carbonyl}-N-[(1-oxidopyridin-3-yl)methyl]-10,11-dihydro-5H-pyrrolo[2,1-c][1,4]benzodiazepine-3-carboxamide] |  | 792 |
| COc1ccccc1-c1ccc(C(=O)N2Cc3ccc(C(=O)N(C)CCc4ccccn4)n3Cc3ccccc32)cc1 [Example 67, 10-[(2′-Methoxy-[1,1′-biphenyl]-4-yl)carbonyl]-N-methyl-N-[2-(2-pyridinyl)ethyl]-10,11-dihydro-5H-pyrrolo[2,1-c][1,4]benzodiazepine-3-carboxamide] | 40 |  |
| COc1ccccc1-c1ccc(C(=O)N2Cc3ccc(C(=O)N(C)Cc4cccnc4)n3Cc3ccccc32)cc1 [Example 104, 10-[(2′-Methoxy-[1,1′-biphenyl]-4-yl)carbonyl]-N-methyl-N-(3-pyridinylmethyl)-10,11-dihydro-5H-pyrrolo[2,1-c][1,4]benzodiazepine-3-carboxamide] | 32 |  |
| COc1cc(-c2ccccc2C)c(Cl)cc1C(=O)N1Cc2ccc(C(=O)N(C)CCc3ccccn3)n2Cc2ccccc21 [Example 63, 10-[(6-Chloro-3-methoxy-2′-methyl-[1,1′-biphenyl]-4-yl)carbonyl]-N-methyl-N-[2-(2-pyridinyl)ethyl]-10,11-dihydro-5H-pyrrolo[2,1-c][1,4]benzodiazepine-3-carboxamide] |  | 273 |

The next lines start with the values.

| inhibition at 0.1 µM [%] | IC50 [nM] | Compound |
| --- | --- | --- |
| 7 |  | COc1cc(C(=O)N2Cc3ccc(C(=O)NCc4ccncc4)n3Cc3ccccc32)ccc1-c1cccc2ccccc12 [Example 96, 10-[3-Methoxy-4-(naphthalen-1-yl)benzoyl]-N-(4-pyridinylmethyl)-10,11-dihydro-5H-pyrrolo[2,1-c][1,4]benzodiazepine-3-carboxamide] |
| 14 |  | COc1cccc(-c2ccc(C(=O)N3Cc4ccc(C(=O)NCc5ccncc5)n4Cc4ccccc43)cc2C)c1 [Example 90, 10-[(3′-Methoxy-2-methyl-[1,1′-biphenyl]-4-yl)carbonyl]-N-(4-pyridinylmethyl)-10,11-dihydro-5H-pyrrolo[2,1-c][1,4]benzodiazepine-3-carboxamide] |
| 29 |  | Cc1ccccc1-c1ccc(C(=O)N2Cc3ccc(C(=O)NCc4ccncc4)n3Cc3ccccc32)cc1C [Example 89, 10-[(2,2′-Dimethyl-[1,1′-biphenyl]-4-yl)carbonyl]-N-(4-pyridinylmethyl)-10,11-dihydro-5H-pyrrolo[2,1-c][1,4]benzodiazepine-3-carboxamide] |
| 11 |  | COc1ccccc1-c1ccc(C(=O)N2Cc3ccc(C(=O)NCc4ccncc4)n3Cc3ccccc32)cc1 [Example 91, 10-[(2′-Methoxy-[1,1′-biphenyl]-4-yl)carbonyl]-N-(4-pyridinylmethyl)-10,11-dihydro-5H-pyrrolo[2,1-c][1,4]benzodiazepine-3-carboxamide] |
|  | 449 | COc1ccccc1-c1ccc(C(=O)N2Cc3ccc(C(=O)N(C)Cc4cccnc4)n3Cc3ccccc32)cc1OC [Example 103, 10-[(2,2′-Dimethoxy-[1,1′-biphenyl]-4-yl)carbonyl]-N-methyl-N-(3-pyridinylmethyl)-10,11-dihydro-5H-pyrrolo[2,1-c][1,4]benzodiazepine-3-carboxamide] |
| -7 |  | O=C(NCc1ccncc1)c1ccc2n1Cc1ccccc1N(C(=O)c1ccc(-c3cccc4ccccc34)cc1Cl)C2 [Example 99, 10-[2-Chloro-4-(naphthalen-1-yl)benzoyl]-N-(4-pyridinylmethyl)-10,11-dihydro-5H-pyrrolo[2,1-c][1,4]benzodiazepine-3-carboxamide] |
